Measured values taken from ChEMBL document CHEMBL1137048, “Design and evaluation of novel nonsteroidal dissociating glucocorticoid receptor ligands” (Bioorg Med Chem Lett, 2004).

Columns and labels:
Glucocorticoid receptor [1] = molecular target: T1, Glucocorticoid receptor (Rattus norvegicus, UniProt P06536); assay: Repression of AP1-luciferase reporter activity in TPA-stimulated U2OS cells expressing rat glucocorticoid receptor; type: functional, cell-based
T1 sequence (P06536 whole entry): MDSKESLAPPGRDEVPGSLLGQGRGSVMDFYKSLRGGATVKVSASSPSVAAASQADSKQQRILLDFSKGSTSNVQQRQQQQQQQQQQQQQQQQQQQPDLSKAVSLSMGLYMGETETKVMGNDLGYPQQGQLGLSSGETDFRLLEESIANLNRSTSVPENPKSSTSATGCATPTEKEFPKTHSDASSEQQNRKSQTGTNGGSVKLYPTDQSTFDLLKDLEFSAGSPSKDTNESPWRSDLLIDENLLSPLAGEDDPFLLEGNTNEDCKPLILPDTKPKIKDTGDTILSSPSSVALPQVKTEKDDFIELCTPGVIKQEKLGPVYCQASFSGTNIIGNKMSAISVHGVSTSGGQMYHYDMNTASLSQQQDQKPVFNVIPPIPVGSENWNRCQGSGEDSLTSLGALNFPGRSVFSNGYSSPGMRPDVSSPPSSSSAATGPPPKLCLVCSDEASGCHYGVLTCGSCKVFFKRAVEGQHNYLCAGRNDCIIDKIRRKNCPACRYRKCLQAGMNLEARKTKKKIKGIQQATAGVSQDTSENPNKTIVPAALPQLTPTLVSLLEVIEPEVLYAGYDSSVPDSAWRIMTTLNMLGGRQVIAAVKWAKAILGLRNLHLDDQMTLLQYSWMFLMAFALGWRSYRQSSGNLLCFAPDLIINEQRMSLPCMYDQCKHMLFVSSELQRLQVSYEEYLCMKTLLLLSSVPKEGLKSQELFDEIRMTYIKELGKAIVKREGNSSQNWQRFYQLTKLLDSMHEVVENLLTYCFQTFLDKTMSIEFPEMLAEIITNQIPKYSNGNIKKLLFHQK

Glucocorticoid receptor [2] = molecular target: T1, Glucocorticoid receptor; assay: Inhibition against U2OS cells expressing rat Glucocorticoid receptor; type: cell-based
Glucocorticoid receptor [3] = molecular target: T1, Glucocorticoid receptor; assay: Repression of NF-kappaB-luciferase reporter activity in TPA stimulated U2OS cells expressing rat glucocorticoid receptor; type: functional, cell-based
Glucocorticoid receptor [4] = molecular target: T1, Glucocorticoid receptor; assay: Effective concentration against MMTV in transactivation assay in U2OS cells expressing rat GR; type: functional, cell-based
Glucocorticoid receptor [5] = molecular target: T2, Glucocorticoid receptor (Homo sapiens, UniProt P04150); assay: Binding affinity for recombinant human glucocorticoid receptor
T2 sequence (P04150 whole entry): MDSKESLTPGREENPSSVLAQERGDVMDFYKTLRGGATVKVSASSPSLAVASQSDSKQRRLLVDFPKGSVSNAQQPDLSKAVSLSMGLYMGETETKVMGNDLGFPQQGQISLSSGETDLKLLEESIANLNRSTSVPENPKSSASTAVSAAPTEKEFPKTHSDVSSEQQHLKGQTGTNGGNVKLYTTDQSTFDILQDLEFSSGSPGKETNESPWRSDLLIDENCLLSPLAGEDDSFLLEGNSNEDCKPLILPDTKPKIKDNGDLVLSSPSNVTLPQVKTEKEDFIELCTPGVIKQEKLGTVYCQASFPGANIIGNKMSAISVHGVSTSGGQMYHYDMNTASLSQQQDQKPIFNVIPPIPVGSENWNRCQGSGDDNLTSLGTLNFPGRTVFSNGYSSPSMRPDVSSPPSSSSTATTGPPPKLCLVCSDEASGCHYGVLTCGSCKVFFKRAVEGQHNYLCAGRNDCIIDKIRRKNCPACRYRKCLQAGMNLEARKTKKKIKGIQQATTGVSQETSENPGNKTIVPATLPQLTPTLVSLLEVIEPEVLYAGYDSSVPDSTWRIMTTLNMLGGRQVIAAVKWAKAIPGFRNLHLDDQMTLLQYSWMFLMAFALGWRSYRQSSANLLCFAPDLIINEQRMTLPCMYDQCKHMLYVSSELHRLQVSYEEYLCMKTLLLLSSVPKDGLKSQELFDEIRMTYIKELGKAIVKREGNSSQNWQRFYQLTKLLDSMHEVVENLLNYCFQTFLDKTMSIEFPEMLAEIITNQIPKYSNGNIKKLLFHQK

Glucocorticoid receptor [6] = molecular target: T2, Glucocorticoid receptor; assay: Effective concentration in CV-1 cell transactivation assay; type: functional, cell-based

EC50 (Glucocorticoid receptor [1]) | IC50 (Glucocorticoid receptor [2]) | EC50 (Glucocorticoid receptor [3]) | EC50 (Glucocorticoid receptor [4]) | SMILES | IC50 (Glucocorticoid receptor [5]) | EC50 (Glucocorticoid receptor [6])
3 nM | 7.9 nM | 4 nM | 3 nM | C[C@]12Cc3cnn(-c4ccc(F)cc4)c3C=C1CCC[C@@H]2C(O)c1ccccc1 (stereo partly drawn) |  | 
 |  |  |  | COc1cc(C(O)C2CCCC3=CC(=O)CCC32C)cc(OC)c1OC (stereo not drawn) | > 2000 nM | 
6 nM | 4.9 nM | 4 nM | 4 nM | CCCCCCCCC(O)[C@H]1CCCC2=Cc3c(cnn3-c3ccc(F)cc3)C[C@@]21C (stereo partly drawn) |  | 
3 nM | 5.2 nM | 3 nM | 3 nM | C[C@]12Cc3cnn(-c4ccc(F)cc4)c3C=C1CCC[C@@H]2C(O)c1cccc(O)c1 (stereo partly drawn) |  | 
8 nM | 0.7 nM | 3 nM | 5 nM | CCCCC(O)[C@H]1CCCC2=Cc3c(cnn3-c3ccc(F)cc3)C[C@@]21C (stereo partly drawn) |  | 
7 nM | 8.6 nM | 3 nM | 11 nM | C[C@]12Cc3cnn(-c4ccc(F)cc4)c3C=C1CCC[C@@H]2C(O)CCc1ccccc1 (stereo partly drawn) |  | 
 |  |  |  | CC12CCC(=O)C=C1CCCC2C(O)c1ccccc1 (stereo not drawn) | 2100 nM | 
16 nM | 6.6 nM | 12 nM | 20 nM | C[C@]12Cc3cnn(-c4ccc(F)cc4)c3C=C1CCC[C@@H]2C(O)c1ccc(O)cc1 (stereo partly drawn) |  | 
3 nM | 2.5 nM | 8 nM | 4 nM | Cc1ccc(C(O)[C@H]2CCCC3=Cc4c(cnn4-c4ccc(F)cc4)C[C@@]32C)cc1 (stereo partly drawn) |  | 
31 nM | 14 nM | 24 nM | 31 nM | C[C@]12Cc3cnn(-c4ccc(F)cc4)c3C=C1CCC[C@@H]2C(O)c1ccc(C(F)(F)F)cc1 (stereo partly drawn) |  | 
17 nM | 5.5 nM | 11 nM | 9 nM | C[C@]12Cc3cnn(-c4ccc(F)cc4)c3C=C1CCC[C@@H]2C(O)Cc1ccccc1 (stereo partly drawn) |  | 
3 nM | 7 nM | 4 nM | 9 nM | C[C@]12Cc3cnn(-c4ccc(F)cc4)c3C=C1CCC[C@@H]2C(O)c1ccc(Cl)cc1 (stereo partly drawn) |  | 
1.8 nM | 1.8 nM | 22 nM | 20 nM | C[C@]12Cc3cnn(-c4ccc(F)cc4)c3C=C1CCC[C@@H]2C(O)c1csc2ccccc12 (stereo partly drawn) |  | 
19 nM | 2.3 nM | 3 nM | 4 nM | COc1cccc(C(O)[C@H]2CCCC3=Cc4c(cnn4-c4ccc(F)cc4)C[C@@]32C)c1 (stereo partly drawn) |  | 
 |  |  |  | CC12CCC(=O)C=C1CCCC2C(O)c1csc2ccccc12 (stereo not drawn) | 165 nM | 

SMILES | EC50 (Glucocorticoid receptor [1]) | IC50 (Glucocorticoid receptor [2]) | EC50 (Glucocorticoid receptor [3]) | EC50 (Glucocorticoid receptor [4]) | IC50 (Glucocorticoid receptor [5]) | EC50 (Glucocorticoid receptor [6])
C[C@]12Cc3cnn(-c4ccc(F)cc4)c3C=C1CCC[C@@H]2C(O)c1ccc(Oc2ccccc2)cc1 (stereo partly drawn) |  | 15.5 nM |  |  |  | 
C[C@@H]1C[C@H]2C3CCC4=CC(=O)C=C[C@]4(C)[C@@]3(F)[C@@H](O)C[C@]2(C)[C@@]1(O)C(=O)O (stereo partly drawn) | 0.2 nM | 1.4 nM | 0.3 nM | 0.2 nM | 5 nM | 5.6 nM
